From PMC7582507, “SARs for the Antiparasitic Plant Metabolite Pulchrol. Part 2: B- and C-Ring Substituents” (Molecules, 2020)
Read-outs that look alike come from different tables or passages of the source.

How the values were obtained:
[1] = test system: Leishmania amazonensis promastigotes; experiment: Leishmanicidal activity against L. amazonensis promastigotes (XTT, 72 h); settings: for IC50: 72 h; for selectivity ratio at 72 h: mouse (RAW cells), Leishmania amazonensis (parasite), L. amazoniensis SI (selectivity index, cytotoxicity/anti-protozoal activity); for selectivity ratio at 72 h / L. amazoniensis SI (selectivity index, cytotoxicity/anti-protozoal activity): IC50 RAW cells / IC50 L. amazonensis
[2] = Cytotoxicity on RAW cells (resazurin, 72 h); settings: mouse
[3] = test system: Trypanosoma cruzi epimastigotes; experiment: Trypanocidal activity against T. cruzi epimastigotes (XTT, 72 h); format: cell-based; settings: for IC50: 72 h; for selectivity ratio at 72 h: mouse (RAW cells), Trypanosoma cruzi (parasite), RAW 264.7 macrophage cells versus T. cruzi epimastigotes, read-out: T. cruzi SI (selectivity index, cytotoxicity/anti-protozoal activity); for selectivity ratio at 72 h / T. cruzi SI (selectivity index, cytotoxicity/anti-protozoal activity): IC50 RAW cells / IC50 T. cruzi
Description: Cultures of Trypanosoma cruzi (epimastigotes, donated by the Parasitology Department of INLASA, Tc-INLASA, city, country), were maintained in medium LIT (pH 7.2), supplemented with 10% FBS and incubated at 26 °C. Medium changes were made every 72 h to maintain a viable parasitic population. Trypanocidal activity was determined according to Muelas-Serrano with some modifications. Samples were dissolved in DMSO (maximum final concentration 1%) at 10 mg/mL. Epimastigotes in logarithmic phase of growth, at a concentration of 3 × 10^6 parasites/mL, were distributed (100 μL/well) in 96-well flat bottom microtiter plates. Samples at different concentrations (3.1–100 μg/mL) were added (100 μL). Benznidazole (3.1–100 μg/mL) was used as the control drug. Assays were performed in triplicates. The microwell plates were incubated for 72 h at 26 °C. After incubation, a solution of XTT (1 mg/mL) in PBS (pH 7.0 at 37 °C) with PMS (0.06 mg/mL) was added (50 μL/well) and incubated for 4 h at 26 °C. The optical density of each well was measured and the IC50 values were calculated. A negative control experiments with only 1% DMSO was carried out, showing that the solvent by itself has no antiparasitic activity.

[4] = test system: Leishmania braziliensis promastigotes; experiment: Leishmanicidal activity against L. braziliensis promastigotes (XTT, 72 h); settings: for IC50: 72 h; for selectivity ratio at 72 h: mouse (RAW cells), Leishmania braziliensis (parasite), L. brasiliensis SI (selectivity index, cytotoxicity/anti-protozoal activity); for selectivity ratio at 72 h / L. brasiliensis SI (selectivity index, cytotoxicity/anti-protozoal activity): IC50 RAW cells / IC50 L. braziliensis
[5] = test system: Raw 264.7 murine macrophage cell line; experiment: Cytotoxicity on RAW cells (resazurin, 72 h); settings: read-out: Cytotoxicity IC50; RAW cells, 72 h, average ± SD of at least three experiments
CB2 receptor = settings: cited from earlier work
[6] = test system: Leishmania amazonensis promastigotes; settings: stated as previously investigated and reported, read-out: IC50 against L. amazonesis promastigotes; cited from earlier work
[7] = Leishmania amazonensis, read-out: L. amazoniensis IC50, promastigotes, 72 h, average ± SD of at least three experiments
[8] = RAW 264.7 macrophage cells, Cytotoxicity IC50, RAW cells, 72 h, average ± SD of at least three experiments
[9] = epimastigotes, average ± SD of at least three experiments, read-out: T. cruzi IC50
[10] = read-out: L. brasiliensis IC50, promastigotes, 72 h, average ± SD of at least three experiments
[11] = read-out: L. amazoniensis IC50, promastigotes, average ± SD of at least three experiments
[12] = Trypanosoma cruzi, epimastigotes, average ± SD of at least three experiments, read-out: T. cruzi IC50
[13] = read-out: L. brasiliensis IC50, promastigotes, average ± SD of at least three experiments

| Structure (SMILES) | IC50 [1, 7] | selectivity ratio at 72 h [1] | IC50 at 72 h [2, 8] | selectivity ratio at 72 h [3] | IC50 [4, 10] | selectivity ratio at 72 h [4] | IC50 [3, 12] | IC50 at 72 h [2] | further results |
| --- | --- | --- | --- | --- | --- | --- | --- | --- | --- |
| COc1ccc2c(c1)-c1cc(CO)ccc1CO2 [8a, (2-Methoxy-6H-benzo[c]chromen-9-yl)methanol] | 132 ± 29.3 µM | 0.6 | 82.6 ± 9.5 µM | 1.3 | 248 ± 54.1 µM | 0.3 | – | – | IC50 ([3]; Trypanosoma cruzi, read-out: T. cruzi IC50, epimastigotes, 72 h, average ± SD of at least three experiments): 66.6 µM; IC50 [3, 9]: 66 ± 18.2 µM |
| COc1ccc2c(c1)-c1cc(CO)ccc1C(C)O2 (stereo not shown) [8b, (2-Methoxy-6-methyl-6H-benzo[c]chromen-9-yl)methanol] | – | – | 37.1 ± 3.9 µM | 1 | 156 ± 23.4 µM | 0.2 | 35.9 ± 11.7 µM | – | L. amazoniensis SI (selectivity index, cytotoxicity/anti-protozoal activity) [1]: 0.2; IC50 [1, 11]: 156 ± 58.5 µM |
| COc1ccc2c(c1)-c1cc(CO)ccc1C(C)O2 (stereo not shown) [8c, (2-Methoxy-6-methyl-6H-benzo[c]chromen-9-yl)methanol] | – | – | – | – | – | – | – | – | L. amazoniensis SI (selectivity index, cytotoxicity/anti-protozoal activity) [1]: 0.7; IC50 [1, 11]: 71.8 ± 12.5 µM; IC50 [5]: 52.7 ± 9 µM; T. cruzi SI (selectivity index, cytotoxicity/anti-protozoal activity) [3]: 0.8; IC50 [3, 9]: 67.1 ± 31.2 µM; L. brasiliensis SI (selectivity index, cytotoxicity/anti-protozoal activity) [4]: 0.4; IC50 [4, 13]: 129 ± 24.6 µM |
| CCC1Oc2ccc(OC)cc2-c2cc(CO)ccc21 (stereo not shown) [8d, (6-Ethyl-2-methoxy-6H-benzo[c]chromen-9-yl)methanol] | 71.4 ± 1.1 µM | 0.4 | 30 ± 3.7 µM | 0.6 | 45.9 ± 20.3 µM | 0.7 | 51.8 ± 9.2 µM | – | – |
| CCC1Oc2ccc(OC)cc2-c2cc(CO)ccc21 (stereo not shown) [8e, (6-Ethyl-2-methoxy-6H-benzo[c]chromen-9-yl)methanol] | – | – | – | – | – | – | – | – | L. amazoniensis SI (selectivity index, cytotoxicity/anti-protozoal activity) [1]: 0.6; IC50 [1, 11]: 70.3 ± 3.7 µM; IC50 [5]: 44.4 ± 11.5 µM; T. cruzi SI (selectivity index, cytotoxicity/anti-protozoal activity) [3]: 1.2; IC50 [3, 9]: 37 ± 0.7 µM; L. brasiliensis SI (selectivity index, cytotoxicity/anti-protozoal activity) [4]: 1.0; IC50 [4, 13]: 45.1 ± 19.2 µM |
| CCC1(CC)Oc2ccc(OC)cc2-c2cc(CO)ccc21 [8f, (6,6-Diethyl-2-methoxy-6H-benzo[c]chromen-9-yl)methanol] | 36.9 ± 3.4 µM | 1.2 | 43.6 ± 15.1 µM | 4.2 | 46.9 ± 5 µM | 0.9 | 10.4 ± 0.3 µM | – | – |
| CCCCC1(CCCC)Oc2ccc(OC)cc2-c2cc(CO)ccc21 [8g, (6,6-Dibutyl-2-methoxy-6H-benzo[c]chromen-9-yl)methanol] | 25.4 ± 1.1 µM | 1.4 | – | 1.5 | 29.3 ± 1.4 µM | 1.2 | 22.8 ± 8.5 µM | 35.3 ± 17.5 µM | – |
| COc1ccc2c(c1)OC(C)(C)c1ccc(CO)cc1-2 [10a, (3-Methoxy-6,6-dimethyl-6H-benzo[c]chromen-9-yl)methanol] | 66.6 ± 7.4 µM | 0.9 | – | 0.7 | 37.4 ± 1.1 µM | 1.6 | 88.4 ± 12.2 µM | 59.2 ± 25.9 µM | – |
| COc1cccc2c1-c1cc(CO)ccc1C(C)(C)O2 [10b, (1-Methoxy-6,6-dimethyl-6H-benzo[c]chromen-9-yl)methanol] | 180 ± 21.9 µM | 0.3 | – | 0.5 | 48.1 ± 18.5 µM | 1 | 92.5 ± 14.8 µM | 48.1 ± 18.5 µM | – |
| Cc1ccc2c(c1)-c1cc(CO)ccc1C(C)(C)O2 [10c, (2,6,6-Trimethyl-6H-benzo[c]chromen-9-yl)methanol] | 64.9 ± 12.6 µM | 0.6 | 39.3 ± 1.6 µM | 1.3 | 39.3 ± 2.4 µM | 1 | 31.5 ± 7.9 µM | – | – |
| Cc1ccc2c(c1)OC(C)(C)c1ccc(CO)cc1-2 [10d, (3,6,6-Trimethyl-6H-benzo[c]chromen-9-yl)methanol] | 51.9 ± 13.8 µM | 0.7 | – | 1.1 | 40.1 ± 8.3 µM | 0.9 | 33 ± 3.9 µM | 35.4 ± 7.9 µM | – |
| CC1(C)Oc2ccccc2-c2cc(CO)ccc21 [10e, (6,6-Dimethyl-6H-benzo[c]chromen-9-yl)methanol] | 91.6 ± 5.4 µM | 0.7 | 62.4 ± 6.2 µM | 1.2 | 74.9 ± 16.6 µM | 0.8 | 50.8 ± 6.2 µM | – | – |
| CC(C)c1ccc2c(c1)-c1cc(CO)ccc1C(C)(C)O2 [10f, (2-Isopropyl-6,6-dimethyl-6H-benzo[c]chromen-9-yl)methanol] | 15.6 ± 2.8 µM | 0.6 | – | 0.7 | 18.1 ± 0.7 µM | 0.5 | 12.4 ± 3.5 µM | 8.9 ± 3.5 µM | – |
| CC(C)c1ccc2c(c1)OC(C)(C)c1ccc(CO)cc1-2 [10g, (3-Isopropyl-6,6-dimethyl-6H-benzo[c]chromen-9-yl)methanol] | 21.2 ± 7.1 µM | 1 | – | 1.6 | 19.1 ± 1.1 µM | 1.1 | 14.2 ± 4.2 µM | 22 ± 7.1 µM | – |
| CCCCCc1ccc2c(c1)-c1cc(CO)ccc1C(C)(C)O2 [10h, (6,6-Dimethyl-2-pentyl-6H-benzo[c]chromen-9-yl)methanol] | 16.8 ± 1.9 µM | 0.8 | – | 2 | 16.4 ± 0.3 µM | 0.8 | 6.4 ± 0.3 µM | 12.9 ± 3.2 µM | – |
| O=C(Cn1ccnc1[N+](=O)[O-])NCc1ccccc1 [Benznidazole, reference compound] | – | – | – | – | – | – | 19.2 ± 7.7 µM | – | IC50 [5]: 74.7 ± 9.1 µM; T. cruzi SI (selectivity index, cytotoxicity/anti-protozoal activity) [3]: 3.9 |
| CCCCCc1cc(O)c2c(c1)OC(C)(C)c1ccc(C)cc1-2 [Cannabinol] | – | – | – | – | – | – | – | – | affinity for the CB2 receptor compared to THC (CB2 receptor): 10 times |
| CCCCCCCCCCCCCCCCOP(=O)([O-])OCC[N+](C)(C)C [Miltefosine, reference compound] | – | – | – | – | 13 ± 1.2 µM | – | – | – | – |
| COc1ccc2c(c1)-c1cc(CO)ccc1C(C)(C)O2 [compound 1, pulchrol] | – | – | – | – | 59.2 ± 11.8 µM | – | 18.5 ± 9.6 µM | – | L. amazoniensis SI (selectivity index, cytotoxicity/anti-protozoal activity) [1]: 0.4; IC50 [6]: 77.7 µM; IC50 [5]: 30.7 ± 1.1 µM; T. cruzi SI (selectivity index, cytotoxicity/anti-protozoal activity) [3]: 1.7; L. brasiliensis SI (selectivity index, cytotoxicity/anti-protozoal activity) [4]: 0.5 |
